Data reported in patent publication US20250002507A1, “7,8-DIHYDRO-5H-1,6-NAPHTHYRIDINE DERIVATIVES AS POSITIVE ALLOSTERIC MODULATORS OF THE MUSCARINIC ACETYLCHOLINE RECEPTOR M4 FOR TREATING NEUROLOGICAL AND PSYCHIATRIC DISORDERS” (Vanderbilt University, priority 2021, published 2025).

Biological target: T1, Human M4 (Homo sapiens, UniProt P08173)
T1 construct: expressed in transfected cells
T1 sequence (P08173 1-479): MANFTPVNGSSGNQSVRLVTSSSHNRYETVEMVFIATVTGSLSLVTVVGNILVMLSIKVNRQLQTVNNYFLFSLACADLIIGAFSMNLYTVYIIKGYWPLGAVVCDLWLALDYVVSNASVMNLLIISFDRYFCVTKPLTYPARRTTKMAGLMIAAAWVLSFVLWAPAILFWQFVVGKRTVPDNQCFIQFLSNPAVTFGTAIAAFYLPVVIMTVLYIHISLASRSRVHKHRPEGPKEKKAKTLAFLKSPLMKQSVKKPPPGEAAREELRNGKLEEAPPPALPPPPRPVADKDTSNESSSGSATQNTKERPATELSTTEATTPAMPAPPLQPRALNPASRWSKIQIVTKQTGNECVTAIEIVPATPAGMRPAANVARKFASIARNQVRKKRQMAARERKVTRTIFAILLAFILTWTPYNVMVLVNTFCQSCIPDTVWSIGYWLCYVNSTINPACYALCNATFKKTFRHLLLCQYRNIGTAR
Experiment: mAChR M4 cell-based functional assay (calcium flux, potentiation of EC20 acetylcholine response), hM4-Gqi5 CHO-K1 cells
Conditions: for Emax at 30 µM: CHO-K1, Human M4, % ACh maximum at 30 μM, read-out: Emax (% ACh maximum at 30 μM); for Emax at 30 µM / EC50: Table 3; for EC50: potentiation of EC20 acetylcholine response, calcium flux, CHO-K1 cells, read-out: Human M4 EC50
In short: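 CHO-K1 cells stably expressing human M4 with chimeric Gqi5, loaded with Fluo-4 AM 50 min at 37 °C; calcium flux read by FDSS. 11-point 1:3 compound curves added, then EC20 acetylcholine at 144 s; potentiation of the EC20 response fitted by four-parameter logistic to give EC50 and Emax.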

Row | Emax at 30 µM | EC50 | Compound | Emax (CHO-K1, read-out: Emax (% ACh maximum at 30 μM))
1 | 81% | 906 nM | Cc1c(N2CCc3ncc(C(C)(C)O)cc3C2)nn2c(C(F)(F)F)nnc2c1C [Compound 219, 2-(6-(7,8-dimethyl-3-(trifluoromethyl)-[1,2,4]triazolo[4,3-b]pyridazin-6-yl)-5,6,7,8-tetrahydro-1,6-naphthyridin-3-yl)propan-2-ol] | 
2 | 83% | 88 nM | Cc1c(N2CCc3ncc(C4CC4)cc3C2)nn2c(C(F)(F)F)nnc2c1C [Compound 222, 3-cyclopropyl-6-(7,8-dimethyl-3-(trifluoromethyl)-[1,2,4]triazolo[4,3-b]pyridazin-6-yl)-5,6,7,8-tetrahydro-1,6-naphthyridine] | 
3 | 95% | 329 nM | Cc1c(N2CCc3ncc(-c4ccc(N5CCOCC5)cc4)cc3C2)nn2cnnc2c1C [Compound 223, 4-(4-(6-(7,8-dimethyl-[1,2,4]triazolo[4,3-b]pyridazin-6-yl)-5,6,7,8-tetrahydro-1,6-naphthyridin-3-yl)phenyl)morpholine] | 
4 | 100% | 581 nM | Cc1c(N2CCc3ncc(-c4ccc(N5CCN(C)CC5)cc4)cc3C2)nn2cnnc2c1C [Compound 224, 6-(7,8-dimethyl-[1,2,4]triazolo[4,3-b]pyridazin-6-yl)-3-(4-(4-methylpiperazin-1-yl)phenyl)-5,6,7,8-tetrahydro-1,6-naphthyridine] | 
5 | 85% | 435 nM | Cc1c(N2CCc3ncc(-c4ccc(N5CCC(F)(F)C5)nc4)cc3C2)nn2cnnc2c1C [Compound 225, 3-(6-(3,3-difluoropyrrolidin-1-yl)pyridin-3-yl)-6-(7,8-dimethyl-[1,2,4]triazolo[4,3-b]pyridazin-6-yl)-5,6,7,8-tetrahydro-1,6-naphthyridine] | 
6 | 79% | 1780 nM | Cc1c(N2CCc3ncc(C(=O)Nc4ccccc4F)cc3C2)nn2c(C(F)(F)F)nnc2c1C [Compound 226, 6-(7,8-dimethyl-3-(trifluoromethyl)-[1,2,4]triazolo[4,3-b]pyridazin-6-yl)-N-(2-fluorophenyl)-5,6,7,8-tetrahydro-1,6-naphthyridine-3-carboxamide] | 
7 | 76% | 6410 nM | Cc1c(N2CCc3ncc(C(=O)N4CCCC4)cc3C2)nn2c(C(F)(F)F)nnc2c1C [Compound 227, (6-(7,8-dimethyl-3-(trifluoromethyl)-[1,2,4]triazolo[4,3-b]pyridazin-6-yl)-5,6,7,8-tetrahydro-1,6-naphthyridin-3-yl)(pyrrolidin-1-yl)methanone] | 
8 | 85% | 1720 nM | Cc1c(N2CCc3ncc(C(=O)NCc4cncs4)cc3C2)nn2c(C(F)(F)F)nnc2c1C [Compound 228, 6-(7,8-dimethyl-3-(trifluoromethyl)-[1,2,4]triazolo[4,3-b]pyridazin-6-yl)-N-(thiazol-5-ylmethyl)-5,6,7,8-tetrahydro-1,6-naphthyridine-3-carboxamide] | 
9 | 48% | 590 nM | COc1ccc2c(c1)CCCN2c1cnc2c(c1)CN(c1nn3c(C(F)(F)F)nnc3c(C)c1C)CC2 [Compound 229, 6-(7,8-dimethyl-3-(trifluoromethyl)-[1,2,4]triazolo[4,3-b]pyridazin-6-yl)-3-(6-methoxy-3,4-dihydroquinolin-1(2H)-yl)-5,6,7,8-tetrahydro-1,6-naphthyridine] | 

Row | Compound | Emax at 30 µM | EC50 | Emax (CHO-K1, read-out: Emax (% ACh maximum at 30 μM))
10 | Cc1c(N2CCc3ncc(O)cc3C2)nn2cnnc2c1C [Compound 220, 6-(7,8-dimethyl-[1,2,4]triazolo[4,3-b]pyridazin-6-yl)-5,6,7,8-tetrahydro-1,6-naphthyridin-3-ol] |  | 1370 nM | 81%
11 | Cc1c(N2CCc3ncc(OCC(C)C)cc3C2)nn2cnnc2c1C [Compound 221, 6-(7,8-dimethyl-[1,2,4]triazolo[4,3-b]pyridazin-6-yl)-3-isobutoxy-5,6,7,8-tetrahydro-1,6-naphthyridine] | 76% | 588 nM | 
